Entries after “also recorded” stand apart in the source; their conditions may differ.
Experiments:
[1] = system: tumor-infiltrated lymphocytes; test: Flow cytometry immune profiling of tumor-infiltrating lymphocytes from ID8 tumors a week after the last treatment; format: in vivo, C57BL/6 mice; settings: vs saline control
Procedure: Luciferase-expressing ID-8 ovarian cancer cells (3×10^6 cells) were injected into C57BL/6 female mice (30/group). Tumor initiation was confirmed 20 days later by IVIS imaging, and tumor-bearing animals were randomized into the treatment groups indicated in Table 2. Starting three weeks post tumor inoculation, AMD3100 (3 mg/kg) was injected IP every other day for three weeks alternating with αPD-1 or αPD-L1 (200 μg/mouse) by IP injection. 3 mg/kg AMD3100 is the murine equivalent of the approved human dose of 0.24 mg/kg based on allometric scaling.
Some animals from each treatment group were euthanized by i.p. administration of Ketamine (9 mg/ml in saline) and Xylazine (0.9 mg/ml in saline) a week after the last treatment for evaluation of tumor-infiltrating lymphocytes. Tumors were harvested and processed for immune profiling.
Flow cytometry: Tumors were mechanically disaggregated using razor blades, and cells were further separated by incubation at 37° C. for 2 hours in RPMI 1640 with collagenase type IV (2 mg/ml, Sigma), hyaluronidase (0.1 mg/ml, Sigma), and BSA (2 mg/ml, Sigma). Cell suspensions were passed through 100 μm filters to remove any remaining aggregates. Cells were washed with staining buffer (Biolegend) and stained with conjugated antibodies. All live cells were determined by the LIVE/DEAD® staining (ThermoFisher). Intracellular protein detection was realized by fixation/permeabilization reagents from BioLegend or eBioscience. Flow cytometry were performed using BD LSRFortessa X-20 (BD Biosciences) and data were analyzed by FlowJo V10.
Assessment of Results: Prism 6.0 software (GraphPad Software) was used for all statistical analyses. Statistical differences between three or more experimental groups were analyzed using Two-Way ANOVA, followed by Tukey's multiple comparison tests or Student T tests. Survival was analyzed with the Log-rank test.

[2] = system: intratumoral FoxP3+ regulatory T cells (Treg); settings: literature statement; cited from earlier work
ID8 tumor bearing mice = test: Survival of ID8 tumor bearing mice (AMD3100/checkpoint inhibitor combination study); format: in vivo, C57BL/6 mice; settings: vs saline treated control; AMD3100 3 mg/kg IP every other day for three weeks alternating with αPD-1 or αPD-L1 200 μg/mouse IP; Log-rank test
Procedure: Luciferase-expressing ID-8 ovarian cancer cells (3×10^6 cells) were injected into C57BL/6 female mice (30/group). […] Starting three weeks post tumor inoculation, AMD3100 (3 mg/kg) was injected IP every other day for three weeks alternating with αPD-1 or αPD-L1 (200 μg/mouse) by IP injection.
Tissue Culture: The ID8 ovarian cancer cells, a kind gift from Kathy Roby (University of Kansas Medical Center, Kansas City, Kans.), were transfected with luciferase lentiviral vector and a clone stably expressing luciferase was recovered, here named Luc-ID8. Cells were maintained at 37° C. in DMEM with 2 mmol/L L-glutamine, 10 units/ml penicillin, 10 μg/ml streptomycin, and 10% fetal bovine serum in a humidified atmosphere with 5% CO2. Cells were cultured until 80% confluent, then harvested with Trypsin EDTA (Mediatech) for animal injections.
Treatment Agents: AMD3100 was purchased from Abcam. 10 mg power was dissolved in 16.7 ml saline to achieve concentration of 0.6 mg/ml and 100 μl was injected for each treatment. Anti-mouse PD-1 and anti-mouse PD-L1 were purchased from Biocell. […]

[3] = percentage of total CD8+ T cells in tumors

**Q.** For `c1cc(CN2CCCNCCNCCCNCC2)ccc1CN1CCCNCCNCCCNCC1` [AMD3100, AMD3100 (plerixafor)], which “proportions of CD40L+IL-2+ cells in CD4+FoxP3+CD25− population (helper-like T cells)” value ([1]; in tumors) is on record?
**A.** The value was “significantly increased; also recorded: promoted replacement of Tregs by helper T cells”.

**Q.** What about the “proportions of intratumor Tregs” value ([1]; percent of total CD4+ T cells in tumors) of the same compound?
**A.** The value was “significantly reduced; also recorded: decreased”.

**Q.** What about the “IFN-γ expression in intratumor CD8+ T cells” value [1, 3] of the same compound?
**A.** Its value is “significantly increased; also recorded: enhanced”.

**Q.** And the “intratumor CD8+ memory T cells (CD27+CD44+ population in TILs)” value [1, 3]?
**A.** The value was “significantly increased”.

**Q.** And the “levels of intratumoral FoxP3+ regulatory T cells (Treg)” value [2]?
**A.** The value was “can be reduced”.

**Q.** And the “survival time of ID8 tumor bearing mice” value (ID8 tumor bearing mice)?
**A.** Its value is “significantly extended”.
